We go through one compound from US5554357A, “Magnetic resonance imaging agents containing hydrazide moieties” (Mallinckrodt Medical, Inc., priority 1994, dated 1996).

Structures are written as SMILES.

The subject of one series is ICR mice. Description: acute intravenous toxicity. The following applies: single intravenous injection via lateral tail vein, males and females, 7 days observation, 95% Confidence Limits 6.8-19.6 mmol/kg. It is filed as in vivo, mouse (ICR). As to the method: The acute intravenous toxicity of the compound of Example 1 was determined as follows: ICR mice, at 1 to 4 per dose level, received single intravenous injections of the test substance via a lateral tail vein at the rate of approximately 1 ml/minute. The test substances were at concentrations chosen to result in dose volumes of 5 to 75 ml/kg body weight. Dosing began at a volume of 10 ml/kg. Dose adjustments up or down were made to closely bracket the estimated LD50 with 4 animals per group (2 males and 2 females). Observations of the mice were recorded at times 0, 0.5, 1, 2, 4 and 24 hours and once daily thereafter for up to 7 days post injection. On the 7th day post injection, the mice were euthanized, weighed and necropsied. Abnormal tissues were noted. At this time a decision was made as to whether any histopathology was to be performed and whether or not the tissues should be retained. Necropsies were also performed on mice expiring after 24 hours post-injection, except for dead mice found on the weekends. The LD50 values, along with 95% CI were calculated using a modified Behrens-Reed-Meunch method.

Series [1] in a line: T1 relaxivity by spin-echo NMR. It counts as physicochemical. The following applies: 90 MHz, H2O/D2O (4:1), six concentrations from 20 mM down; least-square fit of 1/T1 versus concentration, correlation coefficient 0.9994. As to the method: T1 relaxation times were measured using spin-echo sequence on the JEOL FX90Q (90 MHz) FT-NMR spectrometer/ Twenty millimolar solution of the complex in Example 1 was prepared in H2 O/D2 O (4:1) mixture and was serially diluted to lower concentrations ([…]) with H2 O/D2 O (4:1) mixture. T1 measurements were made at each of these 6 concentrations. The relaxivity (R1) was determined by applying least-square fit to the plot of 1/T1 versus concentration. The relaxivity of the complex in Example 1 was 4.85+0.06 mM^-1 sec^-1. The correlation coefficient for the least squares analysis was 0.9994.

Regarding `CN(C)NC(=O)CN(CCN(CCN(CC(=O)[O-])CC(=O)NN(C)C)CC(=O)[O-])CC(=O)[O-].O.[Gd+3]` [Example 1], in the series on ICR mice, the LD50 (commonly the dose at which mortality reaches 50%) is recorded as 11.5 mmol/kg. Also, the “relaxivity (R1)” value in series [1] is 4.85 ± 0.06 mM⁻¹ s⁻¹.
